The NIST ThermoML archive (doi:10.1021/je101014q)
± gives the expanded uncertainty stated by the source.

Experiment: xn = mol fraction of the nth substance listed
Conditions: 101 kPa, Liquid, Cone and plate viscometry

CC(=O)[O-].CCCC[N+](CC)(CC)CC [N,N,N-triethylbutanaminium acetate] + O
viscosity [mPa·s]
Conditions	x1 = 0.17	x1 = 0.33	x1 = 0.5	x1 = 1
298.2 K	13 ± 1	66 ± 2	79 ± 3	439 ± 23
313.2 K	10.9 ± 0.4	39.4 ± 1.3	55.5 ± 1.8	306.7 ± 14
333.2 K	5.15 ± 0.18	12.6 ± 0.5	15.6 ± 0.6	47.3 ± 3
